“Also recorded” adds a separate entry of the source.
Test system: human melanoma cell line (Mel-Ho)
Test: Melanocyte dendrite outgrowth assay
Type: cell-based
Settings: Mel-Ho cells; for induction of melanocyte dendricity (in words): different concentrations, 24 hours
From the text: A possibility to test the effect of a compound on melanocyte function as a measure for pigmentation, the melanocyte dendrite outgrowth assay can be performed. Vitiligo melanocytes for example have only stubby dendrites. Increasing dendricity as a prerequisite for the transfer of the melanosomes from melanocytes to the surrounding keratinocytes rescues this defect. For this assay, cells from a human melanoma cell line (Mel-Ho) were obtained from DSMZ (Deutsche Sammlung für Mikroorganismen and Zellkulturen) and were cultured according to the protocol provided by DSMZ. In short, after thawing the melanocytes were cultured in T-75 flasks in melanocyte culture media (provided by the manufacturer) until they reach 70-80% confluency. The melanocytes were then trypsinized, transferred into 5-10 new T-75 flasks, and grown again to same confluency as described above. After this expansion step the melanocytes were immediately used for the Melanocyte Dendrite Outgrowth Assay or were frozen for later use. For the assay, the melanocytes were seeded in 24 well plates at a density of 1-5×10^4 cells/well. After 24 hours, the melanocytes were treated with 100 μM IBMX (Sigma-Aldrich) or different concentrations of Sildenafil and Tadalafil for 24 hours. IBMX (=3-isobutyl-1-methylxanthin) is known to cause increased melanocyte dendricity and was used as a positive control. Cells treated with media only were used as a negative control. Melanocyte dendrite outgrowth was documented by digital photography (Canon G2 Powershot) after 3, 6 and 24 hours. In addition, melanocyte dendricity was scored by 3 blinded individuals after 24 hours. The score ranges from 1 to 4; 1 representing melanocytes with no dendrites and 4 representing melanocytes with many long and branched dendrites. […] 10 μM Sildenafil was used to obtain an score of >3, however also lower concentrations (down to 10 nM) of Sildenafil was sufficient to induce dendrite formation. The experiment was performed as described in Example 1, however using Tadalafil as active component.

Row | SMILES | induction of melanocyte dendricity (in words) | concentration sufficient to induce dendrite formation (lower concentrations than 10 μM)
1 | CCCc1nn(C)c2c(=O)[nH]c(-c3cc(S(=O)(=O)N4CCN(C)CC4)ccc3OCC)nc12 [Sildenafil, 5-[2-Ethoxy-5-(4-methyl-1-piperazinylsulfonyl)phenyl]-1-methyl-3-n-propyl-1,6-dihydro-7H-pyrazolo[4,3-d]pyrimidin-7-one] | strongly increased dendricity | ≥ 10 nM
2 | CN1CC(=O)N2C(Cc3c([nH]c4ccccc34)[C@H]2c2ccc3c(c2)OCO3)C1=O (stereo partly drawn) [Tadalafil, (6R,12aR)-2,3,6,7,12,12a-hexahydro-2-methyl-6-(3,4-methylenedioxyphenyl)pyrazino[1′,2′:1,6]pyrido[3,4-b]indole-1,4-dione] | very similar to the results obtained with Sildenafil; also recorded: effectively induces dendricity; also recorded: strongly increased dendricity | 

From patent publication US8329656B2, “Use of a PDE5 inhibitor for treating and preventing hypopigmentary disorders” (Switch Biotech AG, priority 2004, dated 2012)
